Compound: NCC(=O)Nc1ccc(-n2nc(C(F)(F)F)cc2-c2ccc3c(ccc4ccccc43)c2)cc1
Assay: relative viability (nuclei count vs DMSO), 5 days (fraction); higher = more cells survive
Procedure, shortened: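 Lung cancer cell lines in 1536-well plates were kept overnight at 37 °C, then pinned with five library-drug doses (not always all listed) spaced by √10 on vehicle-anchored plates. After 5 days without medium change, cells were fixed, permeabilised and Hoechst-stained in one step, imaged at 4×, and nuclei were counted with MetaXpress. Viability is treated-well nuclei divided by vehicle-well nuclei, taken as the median over plates. Plates passed only with control CV below 25% and at least one doubling.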

Cell Line | relative viability (0.02 µM) | relative viability (0.06325 µM) | relative viability (0.2 µM) | relative viability (0.6325 µM) | relative viability (2 µM)
201T | 0.892 | 1.01 | 0.98 | 0.989 | 1.01
A549 | 1.03 | 0.987 | 1.01 | 0.949 | 0.915
A-427 | 0.766 | 1.06 | 0.998 | 0.994 | 1.03
ABC-1 | 0.914 | 0.926 |  | 0.996 | 0.86
BEN | 0.99 | 0.972 | 0.994 | 0.894 | 0.975
CAL-12T | 0.957 | 1.01 | 1.05 | 0.949 | 1.08
COR-L23 | 1.08 | 1.02 | 1.07 | 1 | 0.882
COR-L 105 | 0.843 | 1.02 | 0.916 | 0.891 | 0.94
Calu-6 | 0.962 | 1.05 | 1.03 | 1 | 0.977
ChaGo-K-1 | 0.98 | 0.994 | 0.941 | 0.971 | 1.03
EBC-1 | 1.01 | 1.03 | 1.07 | 1.02 | 1.01
EKVX | 1.03 | 1.01 | 0.971 | 0.966 | 1.01
EMC-BAC-2 | 0.918 | 1.01 | 1.05 | 0.931 | 1
EPLC-272H | 0.904 | 1.2 | 0.874 | 1.01 | 0.911
H3255 | 0.951 | 1.01 | 0.974 | 0.866 | 1.05
HARA | 0.901 | 1.09 | 0.975 | 1.11 | 1.07
HCC-15 | 1 | 1.06 | 0.963 | 1.03 | 1.02
HCC-44 | 0.996 | 1.03 | 0.952 | 0.984 | 1
HCC-78 | 0.993 | 0.93 | 1.04 | 0.944 | 0.968
HCC-366 | 1.01 | 1.07 | 1 | 1.01 | 0.934
HCC-827 | 1.03 | 1.05 | 0.987 | 1.02 | 1.1
HOP-62 | 1.03 | 0.997 | 0.943 | 0.928 | 1.05
IA-LM | 1.01 | 1.03 | 1.02 | 1.08 | 0.996
LC-2-ad | 0.951 | 1.08 | 1 | 0.968 | 1.01
LCLC-97TM1 | 0.995 | 1.1 | 1 | 1.01 | 0.958
LCLC-103H | 0.957 | 1.07 | 0.963 | 0.979 | 0.966
LK-2 | 0.923 | 1.05 | 0.935 | 1.06 | 0.909

Cell Line | relative viability (0.02 µM) | relative viability (0.06325 µM) | relative viability (0.2 µM) | relative viability (0.6325 µM) | relative viability (2 µM)
LOU-NH91 | 0.963 | 1 | 0.951 | 0.965 | 1.06
LU99A | 0.864 | 0.915 | 0.987 | 0.908 | 0.967
LXF-289 | 1.01 | 1.06 | 0.988 | 0.991 | 1.03
NCI-H23 | 0.863 | 1.04 | 0.988 | 0.904 | 0.846
NCI-H322M | 1.01 | 0.958 | 0.92 | 0.98 | 0.996
NCI-H358 | 0.965 | 0.993 | 0.925 | 0.939 | 0.94
NCI-H441 | 0.977 | 1.04 | 1.28 | 0.947 | 0.956
NCI-H460 | 0.974 | 0.995 | 1 | 0.987 | 0.976
NCI-H520 | 1.01 | 1.04 | 1.1 | 0.933 | 1.05
NCI-H522 | 0.886 | 0.978 | 0.922 | 0.96 | 0.925
NCI-H596 | 1.12 | 1.11 | 1.06 | 0.992 | 0.945
NCI-H647 | 0.934 | 1.03 | 1.07 | 0.943 | 0.897
NCI-H650 | 0.866 | 0.977 | 0.981 | 0.866 | 1.02
NCI-H661 | 1.03 | 0.96 | 0.973 | 0.963 | 1.02
NCI-H727 | 0.858 | 1.16 | 1.02 | 0.922 | 1.09
NCI-H838 | 0.958 | 0.998 | 1 | 0.909 | 0.864
NCI-H1299 | 0.993 | 0.982 | 1.02 | 0.992 | 1
NCI-H1355 | 0.971 | 1.07 | 0.883 | 1.02 | 0.995
NCI-H1395 | 0.941 | 0.983 | 0.755 | 0.858 | 1
NCI-H1437 | 0.975 | 1.05 | 0.957 | 1.01 | 0.946
NCI-H1563 | 0.992 | 0.954 | 0.997 | 1.02 | 0.968
NCI-H1623 | 1.05 | 1.02 | 0.943 | 0.923 | 1.01
NCI-H1648 | 0.751 | 0.939 | 0.9 | 0.989 | 1.11
NCI-H1650 | 0.913 | 0.995 | 0.847 | 0.971 | 1.09
NCI-H1651 | 1 | 0.947 | 0.978 | 0.956 | 0.998
NCI-H1666 | 1.05 | 0.986 | 1.01 | 0.961 | 0.987
NCI-H1703 | 1.01 | 0.816 | 0.972 | 0.889 | 0.812

Cell Line | relative viability (0.02 µM) | relative viability (0.06325 µM) | relative viability (0.2 µM) | relative viability (0.6325 µM) | relative viability (2 µM)
NCI-H1734 | 0.931 | 1.06 | 0.955 | 0.966 | 0.928
NCI-H1755 | 1.01 | 1.03 | 1.04 | 0.966 | 0.986
NCI-H1792 | 1.05 | 0.812 | 0.875 | 0.95 | 0.911
NCI-H1793 | 0.984 | 1.08 | 0.86 | 0.915 | 1.08
NCI-H1915 | 0.86 | 1.02 | 0.978 | 0.963 | 0.989
NCI-H1944 | 0.822 | 0.973 | 0.966 | 0.965 | 0.899
NCI-H1975 | 0.91 | 0.887 | 1.03 | 0.972 | 1.03
NCI-H1993 | 0.934 | 1.1 | 1.05 | 1 | 1.04
NCI-H2009 | 0.952 | 1.02 | 1.07 | 1 | 1.05
NCI-H2023 | 0.952 | 1.06 | 0.957 | 1.06 | 0.922
NCI-H2085 | 0.961 | 1.01 | 1.03 | 0.982 | 1.01
NCI-H2087 | 0.978 | 1.09 | 1.1 | 1.08 | 1.02
NCI-H2126 | 0.981 | 1.04 | 1.04 | 0.993 | 0.997
NCI-H2170 | 0.985 | 0.974 | 0.967 | 0.949 | 0.997
NCI-H2228 | 1 | 1.04 | 1.1 | 1.03 | 0.797
NCI-H2342 | 0.93 | 1.01 | 0.988 | 0.986 | 0.911
NCI-H2347 | 0.99 | 1.06 | 1.16 | 1.11 | 1.07
NCI-H2405 | 1 | 1.02 | 1.09 | 0.961 | 1.06
NCI-H3122 | 1.01 | 1.02 | 1.01 | 1.01 | 1
PC-3 [JPC-3] | 0.996 | 1.08 | 1.01 | 1.02 | 1.14
PC-14 | 1.05 | 1.06 | 0.954 | 0.964 | 1.02
RERF-LC-KJ | 1.05 | 1.01 | 0.993 | 1.01 | 1
SK-LU-1 | 0.949 | 1.1 | 1.2 | 1.01 | 1.07
SK-MES-1 | 1.04 | 1.01 | 1.06 | 1.01 | 1.03
SW 900 | 0.717 | 0.941 | 0.856 | 0.784 | 0.814
SW 1573 | 0.94 | 1.01 | 1.03 | 0.971 | 0.877
